Data from ChEMBL document CHEMBL1275511, “Molecular and biochemical characterization of SHV-56, a novel inhibitor-resistant beta-lactamase from Klebsiella pneumoniae” (Antimicrob Agents Chemother, 2008).
Converted amounts (≈) assume the structure as drawn.

Legend:
[1] = system: Escherichia coli; experiment: Activity of Escherichia coli Inhibitor-resistant beta-lactamase SHV-56; conditions: JM109
[2] = system: Klebsiella pneumoniae; experiment: Antimicrobial activity against Klebsiella pneumoniae Kp2792 expressing beta-lactamase SHV-56 by agar dilution method; format: functional
[3] = system: Escherichia coli; experiment: Antimicrobial activity against Escherichia coli JM109 by agar dilution method; format: functional
[4] = system: Escherichia coli; experiment: Antimicrobial activity against Escherichia coli JM109 by agar dilution method in presence of clavulanic acid; format: functional
[5] = system: Escherichia coli; experiment: Antimicrobial activity against Escherichia coli JM109 harboring pSC1 plasmid expressing beta-lactamase SHV-56 by agar dilution method in presence of clavulanic acid; format: functional
[6] = system: Escherichia coli; experiment: Antimicrobial activity against Escherichia coli JM109 harboring pE1 plasmid expressing beta-lactamase SHV-11 by agar dilution method in presence of clavulanic acid; format: functional
[7] = system: Escherichia coli; experiment: Antimicrobial activity against Escherichia coli JM109 harboring pE1 plasmid expressing beta-lactamase SHV-11 by agar dilution method; format: functional
[8] = system: Klebsiella pneumoniae; experiment: Antimicrobial activity against Klebsiella pneumoniae Kp2792 expressing beta-lactamase SHV-56 by agar dilution method in presence of clavulanic acid; format: functional
[9] = system: Escherichia coli; experiment: Antimicrobial activity against Escherichia coli JM109 harboring pE1MD plasmid expressing beta-lactamase SHV-56 by agar dilution method; format: functional
[10] = system: Escherichia coli; experiment: Antimicrobial activity against Escherichia coli JM109 harboring pSC1 plasmid expressing beta-lactamase SHV-56 by agar dilution method; format: functional
[11] = system: Escherichia coli; experiment: Antimicrobial activity against Escherichia coli JM109 harboring pE1MD plasmid expressing beta-lactamase SHV-56 by agar dilution method in presence of clavulanic acid; format: functional
[12] = system: Escherichia coli; experiment: Antimicrobial activity against Escherichia coli JM109 harboring pSC1 plasmid expressing beta-lactamase SHV-56 by agar dilution method in presence of Sulbactam; format: functional
[13] = system: Klebsiella pneumoniae; experiment: microbe, parasite or virus in culture; conditions: Kp2792
[14] = system: Escherichia coli; experiment: Antimicrobial activity against Escherichia coli JM109 harboring pE1MD plasmid expressing beta-lactamase SHV-56 by agar dilution method in presence of Sulbactam; format: functional
[15] = system: Escherichia coli; experiment: Antimicrobial activity against Escherichia coli JM109 harboring pE1 plasmid expressing beta-lactamase SHV-11 by agar dilution method in presence of Sulbactam; format: functional
[16] = system: Escherichia coli; experiment: Ratio of Kcat to Km for Escherichia coli Inhibitor-resistant beta-lactamase SHV-56; conditions: JM109
[17] = system: Escherichia coli; experiment: Antimicrobial activity against Escherichia coli JM109 harboring pE1MD plasmid expressing beta-lactamase SHV-56 by agar dilution method in presence of Tazobactam; format: functional
[18] = system: Escherichia coli; experiment: Antimicrobial activity against Escherichia coli JM109 harboring pE1 plasmid expressing beta-lactamase SHV-11 by agar dilution method in presence of Tazobactam; format: functional
[19] = system: Escherichia coli; experiment: Antimicrobial activity against Escherichia coli JM109 by agar dilution method in presence of Tazobactam; format: functional
[20] = system: Escherichia coli; experiment: Antimicrobial activity against Escherichia coli JM109 harboring pSC1 plasmid expressing beta-lactamase SHV-56 by agar dilution method in presence of Tazobactam; format: functional
[21] = system: Klebsiella pneumoniae; experiment: Antimicrobial activity against Klebsiella pneumoniae Kp2792 expressing beta-lactamase SHV-56 by agar dilution method in presence of Tazobactam; format: functional
[22] = Inhibition of Escherichia coli Inhibitor-resistant beta-lactamase SHV-56; design: species or system JM109
[23] = substrate: CO[C@@]1(NC(=O)Cc2cccs2)C(=O)N2C(C(=O)O)=C(COC(N)=O)CS[C@@H]21; experiment: (§1) Activity of Escherichia coli beta-lactamase SHV-11; conditions: JM109
[24] = substrate: CCN1CCN(C(=O)N[C@@H](C(=O)N[C@@H]2C(=O)N3[C@@H]2SC(C)(C)[C@@H]3C(=O)O)c2ccccc2)C(=O)C1=O; experiment: as §1; conditions: JM109
[25] = substrate: C[C@H]1[C@H](NC(=O)/C(=N\OC(C)(C)C(=O)O)c2csc(N)n2)C(=O)N1S(=O)(=O)O; experiment: as §1; conditions: JM109
[26] = substrate: CC(=O)OCC1=C(C(=O)O)N2C(=O)[C@@H](NC(=O)Cc3cccs3)[C@H]2SC1; experiment: as §1; conditions: JM109
[27] = substrate: CO/N=C(\C(=O)N[C@@H]1C(=O)N2C(C(=O)[O-])=C(C[N+]3(C)CCCC3)CS[C@H]12)c1csc(N)n1; experiment: as §1; conditions: JM109
[28] = substrate: CC1(C)S[C@@H]2[C@H](NC(=O)[C@H](C(=O)O)c3ccsc3)C(=O)N2[C@H]1C(=O)O; experiment: as §1; conditions: JM109
[29] = substrate: CC(C)(O/N=C(\C(=O)N[C@@H]1C(=O)N2C(C(=O)[O-])=C(C[n+]3ccccc3)CS[C@H]12)c1csc(N)n1)C(=O)O; experiment: as §1; conditions: JM109
[30] = substrate: CO/N=C(\C(=O)N[C@@H]1C(=O)N2C(C(=O)O)=C(COC(C)=O)CS[C@H]12)c1csc(N)n1; experiment: as §1; conditions: JM109
[31] = substrate: CO/N=C(\C(=O)N[C@@H]1C(=O)N2C(C(=O)O)=C(COC(N)=O)CS[C@H]12)c1ccco1; experiment: as §1; conditions: JM109
[32] = substrate: CO/N=C(\C(=O)N[C@@H]1C(=O)N2C(C(=O)O)=C(CSc3nc(=O)c(O)nn3C)CS[C@H]12)c1csc(N)n1; experiment: as §1; conditions: JM109
[33] = substrate: CCN1CCN(C(=O)N[C@@H](C(=O)N[C@@H]2C(=O)N3[C@@H]2SC(C)(C)[C@@H]3C(=O)O)c2ccccc2)C(=O)C1=O; experiment: (§2) Ratio of Kcat to Km for Escherichia coli beta-lactamase SHV-11; conditions: JM109
[34] = substrate: CC(=O)OCC1=C(C(=O)O)N2C(=O)[C@@H](NC(=O)Cc3cccs3)[C@H]2SC1; experiment: as §2; conditions: JM109
[35] = substrate: CC1(C)S[C@@H]2[C@H](NC(=O)[C@H](C(=O)O)c3ccsc3)C(=O)N2[C@H]1C(=O)O; experiment: as §2; conditions: JM109
[36] = substrate: CO/N=C(\C(=O)N[C@@H]1C(=O)N2C(C(=O)O)=C(COC(N)=O)CS[C@H]12)c1ccco1; experiment: as §2; conditions: JM109
[37] = substrate: CO/N=C(\C(=O)N[C@@H]1C(=O)N2C(C(=O)O)=C(CSc3nc(=O)c(O)nn3C)CS[C@H]12)c1csc(N)n1; experiment: as §2; conditions: JM109

CO/N=C(\C(=O)N[C@@H]1C(=O)N2C(C(=O)[O-])=C(C[N+]3(C)CCCC3)CS[C@H]12)c1csc(N)n1
kcat [1]: < 0.01 s⁻¹
MIC [2]: ≤ 0.1 µg/mL
MIC [3]: ≤ 0.1 µg/mL

CC(C)(O/N=C(\C(=O)N[C@@H]1C(=O)N2C(C(=O)[O-])=C(C[n+]3ccccc3)CS[C@H]12)c1csc(N)n1)C(=O)O
kcat [1]: < 0.01 s⁻¹

CO/N=C(\C(=O)N[C@@H]1C(=O)N2C(C(=O)O)=C(COC(N)=O)CS[C@H]12)c1ccco1
kcat [1]: < 0.01 s⁻¹

CO/N=C(\C(=O)N[C@@H]1C(=O)N2C(C(=O)O)=C(CSc3nc(=O)c(O)nn3C)CS[C@H]12)c1csc(N)n1
kcat [1]: < 0.01 s⁻¹

CO[C@@]1(NC(=O)Cc2cccs2)C(=O)N2C(C(=O)O)=C(COC(N)=O)CS[C@@H]21
kcat [1]: < 0.01 s⁻¹

C[C@H]1[C@H](NC(=O)/C(=N\OC(C)(C)C(=O)O)c2csc(N)n2)C(=O)N1S(=O)(=O)O
kcat [1]: < 0.01 s⁻¹

CC1(C)S[C@@H]2[C@H](NC(=O)[C@H](N)c3ccc(O)cc3)C(=O)N2[C@H]1C(=O)O [AMOXICILLIN]
MIC [4]: 2 µg/mL
MIC [5]: 512 µg/mL
MIC [6]: 2 µg/mL
MIC [7]: 2050 µg/mL (≈ 5600 µM)
MIC [8]: 4100 µg/mL
MIC [2]: > 4100 µg/mL
MIC [3]: 4 µg/mL (≈ 10.9 µM)
MIC [9]: 4100 µg/mL (≈ 11200 µM)
MIC [10]: 4100 µg/mL (≈ 11200 µM)
MIC [11]: 256 µg/mL

CC1(C)S[C@@H]2[C@H](NC(=O)[C@H](N)c3ccccc3)C(=O)N2[C@H]1C(=O)O [AMPICILLIN]
MIC [12]: 128 µg/mL
MIC [7]: 1020 µg/mL (≈ 2930 µM)
MIC [13]: 128 µg/mL (≈ 366 µM)
MIC [14]: 64 µg/mL
MIC [2]: > 4100 µg/mL
MIC [3]: 4 µg/mL (≈ 11.4 µM)
MIC [9]: 1020 µg/mL (≈ 2930 µM)
MIC [10]: 2050 µg/mL (≈ 5860 µM)
MIC [15]: 128 µg/mL

CO/N=C(\C(=O)N[C@@H]1C(=O)N2C(C(=O)O)=C(COC(C)=O)CS[C@H]12)c1csc(N)n1 [CEFOTAXIME]
kcat [1]: < 0.01 s⁻¹
MIC [2]: ≤ 0.1 µg/mL
MIC [3]: ≤ 0.1 µg/mL

CC(=O)OCC1=C(C(=O)O)N2C(=O)[C@@H](NC(=O)Cc3cccs3)[C@H]2SC1 [CEPHALOTHIN]
Km [1]: 20 µM
kcat [1]: 0.1 s⁻¹
kcat/Km [16]: 5000 M⁻¹ s⁻¹
MIC [7]: 8 µg/mL (≈ 20.2 µM)
MIC [2]: 8 µg/mL (≈ 20.2 µM)
MIC [3]: 4 µg/mL (≈ 10.1 µM)
MIC [9]: 8 µg/mL (≈ 20.2 µM)
MIC [10]: 8 µg/mL (≈ 20.2 µM)

C[C@@H](O)[C@H]1C(=O)N2C(C(=O)O)=C(SCCNC=N)C[C@H]12 [IMIPENEM ANHYDROUS]
MIC [2]: ≤ 0.1 µg/mL
MIC [3]: ≤ 0.1 µg/mL

CCN1CCN(C(=O)N[C@@H](C(=O)N[C@@H]2C(=O)N3[C@@H]2SC(C)(C)[C@@H]3C(=O)O)c2ccccc2)C(=O)C1=O [PIPERACILLIN]
Km [1]: 50 µM
kcat [1]: 50 s⁻¹
MIC [17]: 1 µg/mL
kcat/Km [16]: 1e+06 M⁻¹ s⁻¹
MIC [18]: 2 µg/mL
MIC [7]: 64 µg/mL (≈ 124 µM)
MIC [19]: 1 µg/mL
MIC [2]: 512 µg/mL (≈ 989 µM)
MIC [3]: 2 µg/mL (≈ 3.86 µM)
MIC [9]: 64 µg/mL (≈ 124 µM)
MIC [10]: 512 µg/mL (≈ 989 µM)
MIC [20]: 2 µg/mL
MIC [21]: 4 µg/mL

CC1(C)[C@H](C(=O)O)N2C(=O)C[C@H]2S1(=O)=O [SULBACTAM]
IC50 [22]: 300 nM

CC1(C)S[C@@H]2[C@H](NC(=O)[C@H](C(=O)O)c3ccsc3)C(=O)N2[C@H]1C(=O)O [TICARCILLIN]
Km [1]: 450 µM
kcat [1]: 30 s⁻¹
MIC [4]: 2 µg/mL
kcat/Km [16]: 70000 M⁻¹ s⁻¹
MIC [5]: 256 µg/mL
MIC [6]: 2 µg/mL
MIC [7]: 2050 µg/mL (≈ 5330 µM)
MIC [8]: 1020 µg/mL
MIC [2]: > 4100 µg/mL
MIC [3]: 4 µg/mL (≈ 10.4 µM)
MIC [9]: 2050 µg/mL (≈ 5330 µM)
MIC [10]: > 4100 µg/mL
MIC [11]: 128 µg/mL

B1: Beta-lactamase SHV-11 (Escherichia coli), Q7X575 (protein)
chain: MRYIRLCIISLLATLPLAVHASPQPLEQIKQSESQLSGRVGMIEMDLASGRTLTAWRADERFPMMSTFKVVLCGAVLARVDAGDEQLERKIHYRQQDLVDYSPVSEKHLADGMTVGELCAAAITMSDNSAANLLLATVGGPAGLTAFLRQIGDNVTRLDRWETELNEALPGDARDTTTPASMAATLRKLLTSQRLSARSQRQLLQWMVDDRVAGPLIRSVLPAGWFIADKTGAGERGARGIVALLGPNNKAERIVVIYLRDTPASMAERNQQIAGIGAALIEHWQR
kcat [23]: < 0.01 s⁻¹
Km [24]: 40 µM
kcat [24]: 30 s⁻¹
kcat [25]: < 0.01 s⁻¹
Km [26]: 50 µM
kcat [26]: 0.5 s⁻¹
kcat [27]: < 0.01 s⁻¹
Km [28]: 20 µM
kcat [29]: < 0.01 s⁻¹
kcat [30]: < 0.01 s⁻¹
Km [31]: 200 µM
kcat [31]: 0.05 s⁻¹
Km [32]: 300 µM
kcat [32]: 0.01 s⁻¹
kcat/Km [33]: 750000 M⁻¹ s⁻¹
kcat/Km [34]: 10000 M⁻¹ s⁻¹
kcat/Km [35]: 100000 M⁻¹ s⁻¹
kcat/Km [36]: 250 M⁻¹ s⁻¹
kcat/Km [37]: 350000 M⁻¹ s⁻¹
